Assay results as given in patent US12528767B2, “HDAC6 inhibitors and uses thereof” (Eikonizo Therapeutics, Inc., priority 2019, dated 2026).
Where two headings read alike, the source gives them in different places.

Tests used:
Full length Human HDAC6 = target: T1, Full length Human HDAC6 (Homo sapiens, UniProt Q9UBN7); settings: for Selectivity (6 v 8) (fold): ratio of HDAC8 IC50/HDAC6 IC50
T1 sequence (Q9UBN7 1-1215): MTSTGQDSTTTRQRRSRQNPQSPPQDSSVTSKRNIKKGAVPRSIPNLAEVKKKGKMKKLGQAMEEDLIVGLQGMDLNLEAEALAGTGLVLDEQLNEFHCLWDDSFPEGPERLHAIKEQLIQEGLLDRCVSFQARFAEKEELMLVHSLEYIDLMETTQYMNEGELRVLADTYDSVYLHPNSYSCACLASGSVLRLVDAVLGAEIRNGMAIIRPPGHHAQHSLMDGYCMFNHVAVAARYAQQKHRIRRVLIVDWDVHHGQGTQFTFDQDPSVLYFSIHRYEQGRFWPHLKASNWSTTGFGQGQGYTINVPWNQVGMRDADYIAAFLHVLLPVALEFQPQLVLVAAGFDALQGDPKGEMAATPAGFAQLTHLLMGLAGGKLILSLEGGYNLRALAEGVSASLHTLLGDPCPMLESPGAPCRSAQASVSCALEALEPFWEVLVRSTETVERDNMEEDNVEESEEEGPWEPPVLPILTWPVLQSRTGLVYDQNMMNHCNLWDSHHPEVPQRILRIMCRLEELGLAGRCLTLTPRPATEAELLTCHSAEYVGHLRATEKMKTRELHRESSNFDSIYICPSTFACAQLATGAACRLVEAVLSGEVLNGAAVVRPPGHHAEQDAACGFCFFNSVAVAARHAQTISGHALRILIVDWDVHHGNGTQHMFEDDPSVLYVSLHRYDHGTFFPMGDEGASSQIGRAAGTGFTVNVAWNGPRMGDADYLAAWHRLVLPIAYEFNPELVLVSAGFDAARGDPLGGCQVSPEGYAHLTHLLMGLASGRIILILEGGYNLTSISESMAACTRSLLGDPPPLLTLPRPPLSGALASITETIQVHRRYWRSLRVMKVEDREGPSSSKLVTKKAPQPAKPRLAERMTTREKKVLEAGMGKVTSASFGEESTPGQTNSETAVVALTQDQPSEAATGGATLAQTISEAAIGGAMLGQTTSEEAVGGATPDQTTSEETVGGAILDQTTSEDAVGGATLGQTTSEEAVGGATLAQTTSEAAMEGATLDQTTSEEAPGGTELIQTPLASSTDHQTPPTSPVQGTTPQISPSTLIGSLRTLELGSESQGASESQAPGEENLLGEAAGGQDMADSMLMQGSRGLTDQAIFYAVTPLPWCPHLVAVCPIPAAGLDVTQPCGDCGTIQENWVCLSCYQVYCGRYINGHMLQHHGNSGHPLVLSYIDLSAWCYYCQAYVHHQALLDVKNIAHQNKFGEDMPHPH

Full length Human HDAC8 = target: T2, Full length Human HDAC8 (Homo sapiens, UniProt Q9BY41)
T2 sequence (Q9BY41 1-377): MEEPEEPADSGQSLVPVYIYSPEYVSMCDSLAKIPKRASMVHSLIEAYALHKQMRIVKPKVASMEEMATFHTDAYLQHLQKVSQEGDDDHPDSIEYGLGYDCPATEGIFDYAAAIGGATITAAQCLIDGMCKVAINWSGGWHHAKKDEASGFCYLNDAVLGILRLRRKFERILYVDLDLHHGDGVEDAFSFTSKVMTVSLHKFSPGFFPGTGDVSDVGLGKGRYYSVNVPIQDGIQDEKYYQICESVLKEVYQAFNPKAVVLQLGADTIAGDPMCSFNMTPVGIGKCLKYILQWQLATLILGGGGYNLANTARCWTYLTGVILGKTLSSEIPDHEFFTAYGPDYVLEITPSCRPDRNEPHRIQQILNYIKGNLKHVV

| SMILES | Selectivity (6 v 8) (fold) (Full length Human HDAC6; Table 1, number) | Selectivity (6 v 8) (fold) (Full length Human HDAC6; Table 1, range class) | IC50 (Full length Human HDAC6) | IC50 (Full length Human HDAC8) |
| --- | --- | --- | --- | --- |
| O=C(NO)c1ccc2c(c1)CCN1CCCC[C@@H]21 (single isomer, unassigned) [compound 89] | 3.1 fold | II (II: >1-10) |  |  |
| O=C(NO)c1cc(F)c2c(c1)C[C@H]1COCCN1C2 (single isomer, unassigned) [compound 130] | >2.8 fold | V (V: >1000) |  |  |
| O=C(NO)c1cc(F)c(CN2C3CCC2COC3)cc1F [compound 50] | 45.5 fold | III (III: >10-100) | 0.001 to 0.1 µM | 1 to 10 µM |
| Cc1ccn2c1-c1c(F)cc(C(=O)NO)cc1CC2 [compound 155, 10-fluoro-N-hydroxy-1-methyl-5,6-dihydropyrrolo[2,1-a] isoquinoline-8-carboxamide] | 6.1 fold | II (II: >1-10) | 0.001 to 0.1 µM | 0.1 to 1 µM |
| O=C(NO)c1ccc2c(c1)CN1CCCC[C@H]1C2 (single isomer, unassigned) [compound 144] | 26.7 fold | III (III: >10-100) |  |  |
| O=C(NO)c1cc(F)c2c(c1)CCN(CC13C4C5C6C4C1C6C53)C2 (centres unmarked) [compound 25] |  |  | 0.001 to 0.1 µM | 10 to 100 µM |
| O=C1CC2CCC(C1)N2Cc1ccc(C(=O)NO)cc1F [compound 63] | 42.1 fold | III (III: >10-100) | 0.001 to 0.1 µM | 0.1 to 1 µM |
| O=C(NO)c1cc(F)c2c(c1)CCN(CC(F)(F)F)C2 [compound 7] |  |  | 0.001 to 0.1 µM | 1 to 10 µM |
| O=C(NO)c1ccc(CN2CC3(CCCC3)C2)c(F)c1 [compound 69] | 20.6 fold | III (III: >10-100) | 0.001 to 0.1 µM | 1 to 10 µM |
| O=C(NO)c1ccc(CN2CC3(CCOCC3)C2)c(F)c1 [compound 71] | 33.4 fold | III (III: >10-100) | 0.001 to 0.1 µM | 1 to 10 µM |
| CC1(C)C[C@H]2Cc3cc(C(=O)NO)cc(F)c3CN2C1 (single isomer, unassigned) [compound 125] | 82 fold | III (III: >10-100) | 0.001 to 0.1 µM | 1 to 10 µM |
| O=C(NO)c1ccc2c(c1)CN1CCC[C@@H]21 (single isomer, unassigned) [compound 165] | 15 fold | III (III: >10-100) | 0.1 to 1 µM | 1 to 10 µM |
| O=C(NO)c1cc(F)c2c(c1)CCN([C@@H]1CCC13CCCCC3)C2 (single isomer, unassigned) [compound 8] | 198.5 fold | IV (IV: >100-1000) | 0.1 to 1 µM | 10 to 100 µM |
| O=C(NO)c1ccc(CN2CCCC3(C2)C2CC4CC(C2)CC3C4)c(F)c1 (centres unmarked) [compound 77] |  |  | 0.001 to 0.1 µM | 1 to 10 µM |
| O=C(NO)c1cc(F)c2c(c1)CCN(CC1CC1)C2 [compound 2] |  |  | 0.001 to 0.1 µM | 1 to 10 µM |
| O=C(NO)c1ccc(CN2CC3(COC3)C2)c(F)c1 [compound 72] | 44.8 fold | III (III: >10-100) | 0.001 to 0.1 µM | 0.1 to 1 µM |

| SMILES | Selectivity (6 v 8) (fold) (Full length Human HDAC6; Table 1, number) | Selectivity (6 v 8) (fold) (Full length Human HDAC6; Table 1, range class) | IC50 (Full length Human HDAC6) | IC50 (Full length Human HDAC8) |
| --- | --- | --- | --- | --- |
| CC[C@@H](c1ccccc1)N1CCc2cc(C(=O)NO)cc(F)c2C1 (single isomer, unassigned) [compound 31] | 468.8 fold | IV (IV: >100-1000) |  |  |
| CC[C@H]1CCCN1Cc1ccc(C(=O)NO)cc1F (single isomer, unassigned) [compound 49] | 15.4 fold | III (III: >10-100) |  |  |
| CN1Cc2cc(C(=O)NO)ccc2[C@@H]2CCCN21 (single isomer, unassigned) [compound 160] | 1.8 fold | II (II: >1-10) |  |  |
| CC[C@@H]1CCCN1Cc1ccc(C(=O)NO)cc1F (single isomer, unassigned) [compound 48] | 15.6 fold | III (III: >10-100) |  |  |
| CN1Cc2cc(C(=O)NO)ccc2[C@H]2CCCN21 (single isomer, unassigned) [compound 161] | 2 fold | II (II: >1-10) |  |  |
| O=C(NO)c1ccc2c(c1)C[C@H]1CCCN1C2 (single isomer, unassigned) [compound 122] | 14.5 fold | III (III: >10-100) |  |  |
| O=C(NO)c1ccc2c(c1)CN1CCCC[C@@H]1C2 (single isomer, unassigned) [compound 143] | 88.8 fold | III (III: >10-100) |  |  |
| CC1(C)C[C@@H]2Cc3cc(C(=O)NO)cc(F)c3CN2C1 (single isomer, unassigned) [compound 126] | 37.4 fold | III (III: >10-100) |  |  |
| O=C(NO)c1ccc2c(c1)CCN1CCCC[C@H]21 (single isomer, unassigned) [compound 90] | 3.6 fold | II (II: >1-10) |  |  |
| O=C(NO)c1ccc2c(c1)CN1CCC[C@H]21 (single isomer, unassigned) [compound 164] | 2.3 fold | II (II: >1-10) |  |  |
| O=C(NO)c1ccc2c(c1)CCN1CCC[C@H]21 (single isomer, unassigned) [compound 148] | 1.9 fold | II (II: >1-10) |  |  |
| CC[C@H](c1ccccc1)N1CCc2cc(C(=O)NO)cc(F)c2C1 (single isomer, unassigned) [compound 30] | 262.4 fold | IV (IV: >100-1000) |  |  |
| O=C(NO)c1cc(F)c2c(c1)C[C@@H]1COCCN1C2 (single isomer, unassigned) [compound 129] | >2.9 fold | V (V: >1000) |  |  |
| O=C(NO)c1cc(F)c2c(c1)C[C@@H]1CCC3(CCCCC3)CN1C2 (single isomer, unassigned) [compound 137] | 126.4 fold | IV (IV: >100-1000) |  |  |
| O=C(NO)c1ccc2c(c1)CCN1CCC[C@@H]21 (single isomer, unassigned) [compound 149] | 6.5 fold | II (II: >1-10) |  |  |
